{"source": "patent US9844563B2", "about": "“Compositions, kits, and methods to induce acquired cytoresistance using stress protein inducers” (FRED HUTCHINSON CANCER RESEARCH CENTER, priority 2014, dated 2017)", "key": {"HO-1": {"test_system": "HO-1", "assay": "Renal cortical HO-1 protein (ELISA) after IV myoglobin, SnPP or both", "assay_type": "in vivo, mice", "details": "Cortex, 4 hr IV, 1 mg Myoglobin, 1 μmole SnPP", "from_the_text": "The Glycerol Model of AKI. This is a widely used model of rhabdomyolysis-induced AKI that has been employed worldwide for 50 years. The model was used to test whether prophylactic interventions confer protection against AKI. Basically, the protocol is as follows: Male CD-1 mice (35-45 grams), obtained from Charles River Laboratories, Wilmington, Mass. were studied. Mice were maintained under standard vivarium conditions and generally housed for 1-3 weeks prior to study. The mice were placed in a cylindrical restraining cage, and then were given a tail vein injection of the test substances (see below) or test substance vehicle. The mice were then returned to their cages. Eighteen hours (hrs) later, the mice were briefly anesthetized by isoflurane inhalation, and given an intramuscular injection of hypertonic (50%) glycerol in a dose of 9 ml/Kg body weight. The dose is divided in two, with half injected into the muscle of each of the hind limbs. The mice were then returned to their cages. Eighteen hrs later, the mice were deeply anesthetized with pentobarbital (50-100 mg/Kg), the abdominal cavity was opened through a midline abdominal incision, a blood sample was obtained from the abdominal vena cava and the kidneys were resected. A kidney cross section was obtained and fixed in formalin for subsequent histologic analysis. The terminal blood samples were analyzed for BUN and creatinine, using commercially available assay kits. The remaining kidney tissue was subjected to cortical dissection, and the cortical tissues were then extracted for protein and RNA. The protein samples were saved for analysis of HO-1 levels, and the RNA samples were subjected to RT-PCR to quantify HO-1 mRNA as well as levels of other stress gene mRNAs (e.g. NGAL, haptoglobin, hemopexin, hepicidin).\nMyoglobin+SnPP: To 5 mg of dry myoglobin was added 0.9 ml of PBS+0.1 ml of a stock SnPP solution (50 umole/ml). The resulting final concentrations were 5 mg/ml myoglobin+5 umoles/ml of SnPP. The tail vein was injected with 200 ul of this solution, which equals 1 mg myoglobin+1 umole SnPP. […]\nFour hr post myoglobin vs myoglobin+SnPP vs SnPP alone experiments. To confirm that the myoglobin+SnPP has a synergistic effect in inducing HO-1 mRNA and HO-1 protein levels, each of the above combinations have been administered alone via tail vein injection. […] For additional information regarding methods, see Zager et al., Am J Physiol Renal Physiol. 2014 Jul. 30. Pii."}, "IL-10": {"test_system": "IL-10", "assay": "Liver IL-10 mRNA and protein after N-Mgb, SnPP or both", "assay_type": "in vivo, mice", "details": "18 h after Rx treatment", "description": "Thirty-two mice were divided into 4 equal groups: (1) control mice; (2) mice treated with 1 mg of N-Mgb injection (as a bolus through the tail vein); (3) mice treated with […] of SnPP (via tail vein); and (4) mice treated with combined N-Mgb 1 SnPP. After either 4 hours (n=16) or 18 hours (n=16), the mice were deeply anesthetized with pentobarbital (50 mg/kg), the abdomen was opened through a midline abdominal incision, and the kidneys were removed. To determine potential effects on extrarenal organs, a liver lobe and the heart were also removed. The tissues were iced and then extracted for protein and RNA (RNeasy Plus Mini; Qiagen, Valencia, Calif.) and subjected to enzyme linked immunosorbent assay (ELISA) and reverse transcriptase polymerase chain reaction (RT-PCR) for HO-1, haptoglobin, and IL-10 protein and messenger RNAs (mRNAs). Zager et al. J Am Soc Nephrol 2014;25:998-1012; Zager et al. Am J Physiol 2012;303:F139-48. As an assessment of renal function, control mice and the 18 hour after N-Mgb+SnPP—treated mice had blood urea nitrogen (BUN) and plasma creatinine levels measured. Additionally, transverse 10% formalin fixed kidney sections ([…]) were cut and stained with hematoxylin and eosin (H&E) and periodic acid Schiff (PAS) to further assess potential injury."}, "[1]": {"assay": "Glycerol model of rhabdomyolysis-induced AKI", "assay_type": "in vivo, mice", "details": "IV pretreatment 18 hours before glycerol; 18 hours after glycerol", "description": "Assessments of cytoresistance. Glycerol model of rhabdomyolysis-induced AKI. Twenty mice were divided into 4 equal groups (controls, mice treated with N-Mgb, SnPP, and mice treated with N-Mgb+SnPP tail vein injections) as described previously. 18 hours later, the mice were briefly anesthetized with isoflurane and immediately injected with 9 mL/kg of 50% glycerol, administered in equally divided doses into each hind limb. At 18 hours after glycerol injection, the mice were anesthetized with pentobarbital, the abdomen was opened, a blood sample for BUN and creatinine assessments was obtained from the vena cava, and the kidneys were resected. The control post-glycerol group and the N-Mgb+SnPP—pretreated glycerol group had kidney sections stained with H&E.\nCalculations and statistics. All values are given as the mean […] standard error of the mean. Statistical comparisons were made by unpaired Student's t test. If multiple comparisons were made, the Bonferroni correction was applied. The severity of renal histologic injury in the glycerol AKI model was graded on a […] (least to most severe tubular necrosis and cast formation observed). The histologic results were compared by Wlcoxon rank sum test. Statistical significance was taken as a P value of <0.05."}, "[2]": {"details": "Berglund et al. Hepatology 1988; cited from earlier work"}, "[3]": {"details": "Agarwal et al., Kidney Int. 1995; cited from earlier work"}, "[4]": {"details": "Nath et al., J. Clin. Invest. 1992; cited from earlier work"}, "[5]": {"details": "Berglund et al.; Kappas et al.; Reddy et al.; cited from earlier work"}}, "note": "Where “and” joins values, the source holds several entries; their conditions need not be identical. Equal entries are not always repeated.", "data": [{"smiles": "C=Cc1c2[n-]c(c1C)/C=c1\\[n-]/c(c(C)c1C=C)=C\\c1[n-]c(c(CCC(=O)O)c1C)C=c1[n-]/c(c(C)c1CCC(=O)O)=C\\2.[Sn+4]", "note": "[SnPP, Sn-protoporphyrin, reference compound]", "values": [{"measurement": "HO-1 Protein Expression (by ELISA), Average", "setting": "HO-1; average", "value": 34.4, "unit": "ng HO-1/mg protein"}, {"measurement": "HO-1 Protein Expression (by ELISA), individual mice", "setting": "HO-1; single animals", "value": "32.2 ng HO-1/mg protein and 31.5 ng HO-1/mg protein and 20.5 ng HO-1/mg protein and 53.6 ng HO-1/mg protein"}, {"measurement": "Liver mRNA IL-10", "setting": "IL-10", "value": "0.05 ± 0.01"}, {"measurement": "protection against glycerol-induced AKI (BUN/creatinine levels)", "setting": "[1]", "value": "virtually no effect"}, {"measurement": "half-life", "setting": "[2]", "value": "2 to 4", "unit": "h"}, {"measurement": "effect of pretreatment on renal injury", "setting": "[3]", "value": "exacerbated renal injury"}, {"measurement": "effect on kidney dysfunction", "setting": "[4]", "value": "exacerbated kidney dysfunction"}, {"measurement": "tolerability in humans", "setting": "[5]", "value": "well tolerated in humans"}]}]}
